Tests used:
HCT-116 [1] = test: Antiproliferative activity against human HCT-116 cells assessed as inhibition of cell growth incubated for 72 hrs under dark condition by MTT assay; assay type: functional, cell-based; details: HCT-116, 72 h
MCF7 [2] = test: Antiproliferative activity against human MCF7 cells assessed as inhibition of cell growth incubated for 72 hrs under photoirradiation with 6 cool white lamps for 15 mins at 4,28 and 52 hrs after compound addition by MTT assay; assay type: functional, cell-based; details: MCF7, light or radiation study
NCI-H460 [3] = test: Antiproliferative activity against human NCI-H460 cells assessed as inhibition of cell growth incubated for 72 hrs under dark condition by MTT assay; assay type: functional, cell-based; details: NCI-H460, 72 h
MCF7 [4] = test: Antiproliferative activity against human MCF7 cells assessed as inhibition of cell growth incubated for 72 hrs under dark condition by MTT assay; assay type: functional, cell-based; details: MCF7, 72 h
NCI-H460 [5] = test: Antiproliferative activity against human NCI-H460 cells assessed as inhibition of cell growth incubated for 72 hrs under photoirradiation with 6 cool white lamps for 15 mins at 4,28 and 52 hrs after compound addition by MTT assay; assay type: functional, cell-based; details: NCI-H460, light or radiation study
HCT-116 [6] = test: Antiproliferative activity against human HCT-116 cells assessed as inhibition of cell growth incubated for 72 hrs under photoirradiation with 6 cool white lamps for 15 mins at 4,28 and 52 hrs after compound addition by MTT assay; assay type: functional, cell-based; details: HCT-116, light or radiation study
[7] = Emission property of compound in CH3CN assessed as maximal wavelength by […]; assay type: physicochemical
[8] = Absorption property of compound in CH3CN assessed as maximal wavelength by UV-vis spectrophotometer; assay type: physicochemical
[9] = Absorption property of compound in CH3CN assessed as maximal molar absorption coefficient by UV-vis spectrophotometer; assay type: physicochemical
[10] = Fluorescence property of compound in CH3CN assessed as fluorescence quantum yield by spectrofluorometric analysis; assay type: physicochemical

| Structure (SMILES) | IC50 (HCT-116 [1]) | IC50 (MCF7 [2]) | IC50 (NCI-H460 [3]) | IC50 (MCF7 [4]) | IC50 (NCI-H460 [5]) | IC50 (HCT-116 [6]) | Activity [7] | Activity [8] | Activity [9] | Activity [10] |
| --- | --- | --- | --- | --- | --- | --- | --- | --- | --- | --- |
| COc1cccc(CO)c1OCC1=C2C(C)=C(Br)C(C)=[N+]2[B-](C)(C)n2c(C)c(Br)c(C)c21 | 14 µM | 0.15 µM | 19 µM | 11 µM | 0.18 µM | 0.192 µM | 555 nm | 530 nm | 54912 M⁻¹ cm⁻¹ | 0.04 |
| CC1=C(I)C(C)=[N+]2C1=C(COc1ccccc1CO)c1c(C)c(I)c(C)n1[B-]2(C)C | 37 µM | 0.13 µM | 53 µM | 27 µM | 0.18 µM | 0.13 µM | 560 nm | 537 nm | 41143 M⁻¹ cm⁻¹ | 0.005 |
| CC(=O)OCc1ccccc1OCC1=C2C(C)=C(I)C(C)=[N+]2[B-](C)(C)n2c(C)c(I)c(C)c21 | ≥ 100 µM | 0.17 µM | ≥ 100 µM | 63 µM | 0.25 µM | 0.18 µM | 565 nm | 537 nm | 37520 M⁻¹ cm⁻¹ | 0.005 |
| CO[B-]1(C)n2c(C)c(Br)c(C)c2C(COc2ccccc2CO)=C2C(C)=C(Br)C(C)=[N+]21 (stereo not given) | > 100 µM | 6 µM | > 100 µM | 27 µM | 17 µM | 14 µM |  |  |  |  |
| COc1cccc(COC(C)=O)c1OCC1=C2C(C)=C(Br)C(C)=[N+]2[B-](C)(OC)n2c(C)c(Br)c(C)c21 (stereo not given) | 24 µM | 2 µM | 48 µM | 15 µM | 16 µM | 6 µM |  |  |  |  |
| CC1=C(Br)C(C)=[N+]2C1=C(COc1ccccc1CO)c1c(C)c(Br)c(C)n1[B-]2(C)C | 26 µM | 0.23 µM | 69 µM | 17 µM | 0.6 µM | 0.4 µM | 557 nm | 531 nm | 42810 M⁻¹ cm⁻¹ | 0.04 |

Continued, values first:

| IC50 (HCT-116 [1]) | IC50 (MCF7 [2]) | IC50 (NCI-H460 [3]) | IC50 (MCF7 [4]) | IC50 (NCI-H460 [5]) | IC50 (HCT-116 [6]) | Activity [7] | Activity [8] | Activity [9] | Activity [10] | Structure (SMILES) |
| --- | --- | --- | --- | --- | --- | --- | --- | --- | --- | --- |
| 42 µM | 8 µM | 34 µM | 8 µM | ≤ 50 µM | 30 µM |  |  |  |  | CO[B-]1(C)n2c(C)c(I)c(C)c2C(COc2ccccc2CO)=C2C(C)=C(I)C(C)=[N+]21 (stereo not given) |
| 49 µM | 15 µM | > 100 µM | 20 µM | 61 µM | 40 µM |  |  |  |  | CC1=CC(C)=[N+]2C1=C(C=O)c1c(C)cc(C)n1[B-]2(C)C |
|  |  |  |  |  |  | 528 nm | 517 nm | 99848 M⁻¹ cm⁻¹ | 0.99 | CC(=O)OCC1=C2C(C)=CC(C)=[N+]2[B-](F)(F)n2c(C)cc(C)c21 |
| 13 µM | 0.1 µM | 31 µM | 12 µM | 0.15 µM | 0.15 µM | 560 nm | 535 nm | 65694 M⁻¹ cm⁻¹ | 0.012 | COc1cccc(CO)c1OCC1=C2C(C)=C(I)C(C)=[N+]2[B-](C)(C)n2c(C)c(I)c(C)c21 |
| > 100 µM | 0.7 µM | > 100 µM | 27 µM | 1.3 µM | 1.7 µM |  |  |  |  | CO[B-]1(C)n2c(C)c(I)c(C)c2C(COc2ccccc2COC(C)=O)=C2C(C)=C(I)C(C)=[N+]21 (stereo not given) |
| 17 µM | 1.18 µM | 20 µM | 13 µM | 2 µM | 2.3 µM |  |  |  |  | CO[B-]1(C)n2c(C)cc(C)c2C(COc2ccccc2COC(C)=O)=C2C(C)=CC(C)=[N+]21 (stereo not given) |
